Test results as given in publication PMC9848259 (Journal of Enzyme Inhibition and Medicinal Chemistry, 2023).

Legend:
[1] = system: Human hepatic stellate cells (HSCs); experiment: in vitro; format: cell-based; settings: 0.1 µM, 24 h
Description: Human hepatic stellate cells (HSCs, Sciencell) were grown in the Stellate Cell Medium (Sciencell) supplemented with 2% Foetal Bovine Serum (Sciencell), 1% Stellate Cell Growth Supplement (Sciencell) and 1% penicillin/streptomycin solution (Sciencell). The cells were cultured in the incubator at 37 °C and 5% CO2. To start the experiment, the cells were seeded at a density of 5 × 10^3 cells/well in 96-well plates and incubated (37 °C, 5% CO2) for 24 h. After incubation, medium was removed from the wells and the cells were exposed to 100 µl of the compound over a range of concentrations (from 0.1 to 10 µM) or 100 µl of culture medium alone (blank control). The cells were then further incubated for 24 h. After this time, the medium was removed, the cells were washed with PBS and 50 µl of MTT solution (0.75 mg/ml) was added to each well. The plates were incubated in the dark at 37 °C for another two hours. The MTT solution was then removed from the wells and 100 µl of DMSO was added. The plates were incubated at room temperature for 10 min and then 5 µl of Sorensen Buffer was added to each well. The plates were swayed and the absorbance at 570 nm was measured with a microplate reader (Synergy H1, BioTek, Winooski, VT, USA). The cell viability was expressed as a percentage of the control values (blank control)[40]^,[46]^,[47].

[2] = target: T1, BuChE (from equine serum) (Equus caballus, UniProt P81908); experiment: biochemical; settings: for Selectivity for BuChE: IC50(AChE)/IC50(BuChE); for IC50: means ± SD of three experiments
T1 construct: purchased Sigma Aldrich; host or cells: equine serum
T1 sequence (P81908 whole entry): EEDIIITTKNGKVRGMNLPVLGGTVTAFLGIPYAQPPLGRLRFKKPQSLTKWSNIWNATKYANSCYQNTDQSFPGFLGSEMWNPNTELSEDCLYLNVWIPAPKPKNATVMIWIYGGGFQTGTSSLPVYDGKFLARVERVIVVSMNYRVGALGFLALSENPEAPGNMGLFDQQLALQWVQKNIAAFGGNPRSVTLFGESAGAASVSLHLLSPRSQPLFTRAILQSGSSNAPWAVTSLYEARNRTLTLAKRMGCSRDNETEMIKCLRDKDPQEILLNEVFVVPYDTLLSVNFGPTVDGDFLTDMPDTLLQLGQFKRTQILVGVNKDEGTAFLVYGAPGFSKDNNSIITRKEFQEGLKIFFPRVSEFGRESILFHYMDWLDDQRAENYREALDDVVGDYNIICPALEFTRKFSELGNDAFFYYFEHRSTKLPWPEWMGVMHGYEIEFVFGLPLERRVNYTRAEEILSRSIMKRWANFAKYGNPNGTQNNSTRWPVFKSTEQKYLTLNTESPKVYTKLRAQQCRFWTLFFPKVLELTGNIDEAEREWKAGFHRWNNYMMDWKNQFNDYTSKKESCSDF
Description: (§1) The capacity of the novel cyclopentaquinoline hybrids to inhibit AChE (from the electric eel) and BuChE (from equine serum) were determined by the modified colorimetric Ellman’s method[38]^,[39]. Both enzymes, DTNB – Ellman’s reagent (5,5′-dithiobis-(2-nitrobenzoic acid)), acetyltiocholine iodide (ATCI) were obtained from Sigma Aldrich. AChE and BuChE samples in phosphate buffer (PBS) pH 8.0 were incubated in 96-well plates in the presence of the substrate (ATCI), 76 µl of DTNB and the tested compound at various concentration at room temperature for 10 min (AChE) or eight minutes (BuChE).

[3] = target: T2, AChE (from the electric eel) (Electrophorus electricus, UniProt O42275); experiment: biochemical; settings: for Selectivity for AChE: IC50(BuChE)/IC50(AChE); for IC50: means ± SD of three experiments
T2 construct: purchased Sigma Aldrich
T2 sequence (O42275 24-633): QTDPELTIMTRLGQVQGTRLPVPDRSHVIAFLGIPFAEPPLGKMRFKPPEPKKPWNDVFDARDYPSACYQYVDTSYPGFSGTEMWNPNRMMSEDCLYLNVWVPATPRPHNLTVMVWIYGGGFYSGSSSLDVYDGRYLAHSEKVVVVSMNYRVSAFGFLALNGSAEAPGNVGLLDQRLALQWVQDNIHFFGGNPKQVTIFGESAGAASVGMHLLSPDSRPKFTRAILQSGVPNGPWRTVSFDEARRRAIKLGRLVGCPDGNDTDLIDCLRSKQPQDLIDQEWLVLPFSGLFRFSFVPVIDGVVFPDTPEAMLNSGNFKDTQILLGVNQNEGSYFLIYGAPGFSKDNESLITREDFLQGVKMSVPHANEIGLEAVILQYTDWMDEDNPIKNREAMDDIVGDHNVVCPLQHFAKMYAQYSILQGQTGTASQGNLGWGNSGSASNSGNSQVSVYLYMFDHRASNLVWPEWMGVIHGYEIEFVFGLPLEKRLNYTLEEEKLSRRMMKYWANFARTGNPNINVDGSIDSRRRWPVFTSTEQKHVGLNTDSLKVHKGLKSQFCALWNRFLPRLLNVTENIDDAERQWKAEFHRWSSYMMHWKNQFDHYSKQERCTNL
Description: as §1

hyaluronidase = target: T3, hyaluronidase (Bos taurus, UniProt Q2YDK3); experiment: Hyaluronidase inhibition test (turbidimetric); format: biochemical
T3 sequence (Q2YDK3 36-553): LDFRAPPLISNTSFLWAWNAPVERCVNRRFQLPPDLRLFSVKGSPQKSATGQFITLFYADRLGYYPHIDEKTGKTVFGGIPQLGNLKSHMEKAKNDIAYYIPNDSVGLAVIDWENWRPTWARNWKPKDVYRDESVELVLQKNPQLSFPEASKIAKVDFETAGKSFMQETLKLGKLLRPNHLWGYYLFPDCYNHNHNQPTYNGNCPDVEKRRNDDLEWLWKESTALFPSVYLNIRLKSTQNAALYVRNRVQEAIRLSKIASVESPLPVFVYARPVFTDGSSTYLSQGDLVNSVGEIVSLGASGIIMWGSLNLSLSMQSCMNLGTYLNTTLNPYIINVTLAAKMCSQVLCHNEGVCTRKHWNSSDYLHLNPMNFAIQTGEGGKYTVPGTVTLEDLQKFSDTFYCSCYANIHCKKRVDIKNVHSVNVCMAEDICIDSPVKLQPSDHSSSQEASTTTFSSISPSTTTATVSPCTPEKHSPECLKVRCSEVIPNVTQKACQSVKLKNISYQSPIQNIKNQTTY
Description: Hyaluronidase inhibition was established by turbidimetry according to USP XXII-NF XVII[43], which was further adapted to use in 96-well plates by Piwowarski et al.[44] and the principle of this assay is based on the following reaction: hyaluronic acid→hyaluronidase depolymerization products+[…]
The ability to inhibit hyaluronidase was assessed using a turbidimetric method based on spectrophotometric measurement of turbidity resulting from the formation of hyaluronan-bovine albumin complexes in an acidic environment. The analysis was performed against a positive control. Briefly, 20 µl of the tested compound in monosodium phosphate buffer (pH 7.0) was added to 40 µl of hyaluronidase solution (22.55 U/ml, Sigma Aldrich) in the same buffer. The mixture was incubated for 10 min in the dark at 37 °C. Next, 40 µl of hyaluronic acid solution (0.03%, Sigma Aldrich) in monosodium phosphate buffer (pH 5.35) was added to all wells and the mixture was further kept in the dark at 37 °C for 45 min. Finally, 300 µl of bovine serum albumin solution (0.1%, Serva) in sodium acetate buffer (pH 3.75) was added to the mixture, and the 96-well plate was incubated at room temperature for next 10 min. Changes in turbidity at 600 nm were measured by a microplate reader (BioTek, Winooski, VT, USA). Heparin (WZF, Polfa) was used as a positive control. […]

SH-SY5Y cells [4] = experiment: Neuroprotection against rotenone/oligomycin A, co-incubation, MTT test; format: cell-based, human; settings: Rotenone/Oligomycin A 30/10 µM
SH-SY5Y cells [5] = experiment: Neuroprotection against rotenone/oligomycin A, pre-incubation, MTT test; format: cell-based, human; settings: Rotenone/Oligomycin A 30/10 µM, compound 0.001 µM
SH-SY5Y cells [6] = experiment: Neuroprotection against H2O2-induced oxidative stress, MTT test; format: cell-based, human; settings: H2O2 100 µM
[7] = calibration substance; cited from earlier work
Aβ42 = target: T4, Aβ42 (Homo sapiens, UniProt P05067); experiment: In cellulo β-amyloid assay, Th-S fluorescence in E. coli over-expressing Aβ42; format: cell-based, Escherichia coli; settings: 10 µM
T4 construct: expressed in transfected cells; host or cells: Escherichia coli BL21 (DE3), pET vector
T4 sequence (P05067 672-713): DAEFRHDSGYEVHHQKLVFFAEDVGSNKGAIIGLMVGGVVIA
Description: Inhibition assay in Escherichia coli cells over-expressing amyloid proteins. […] Escherichia coli competent cells BL21 (DE3) were transformed with the required pET vectors carrying the DNA sequence of Aβ42 peptide. Because of the addition of the initiation codon ATG in front of genes, the over-expressed Aβ42 contains an additional methionine residue at their N terminus. For overnight culture preparation, a colony of BL21 (DE3) bearing the plasmid to be expressed was inoculated in 10 ml of M9 minimal medium containing 50 μg/ml of kanamycin at 37 °C. […] The bacterial culture was then grown at 37 °C, with orbital agitation of 250 rpm. When the cell density reached OD600nm–0.6, 980 μL of the culture were transferred into 1.5 ml conical tubes containing 10 μL of the compound to be tested dissolved in DMSO, and 10 μL of 100 mM isopropyl 1-thio-β-D-galactopyranoside (IPTG). The final concentration of the compound was set to 10 μM. The samples were grown overnight at 37 °C under agitation at 1400 rpm, using a Thermomixer (Eppendorf, Hamburg, Germany). […]
The fluorescence normalisation was carried out considering as 100% the Th-S fluorescence of the bacterial cells expressing Aβ42 in the absence of drug, and 0% the Th-S fluorescence of the bacterial cells non-expressing Aβ42 (in absence of the protein production inductor, IPTG). […]

Compound: Nc1c2c(nc3ccccc13)CCCC2 [Tacrine, 9-amino-1,2,3,4-tetrahydroacridine, reference compound]
- cell viability (hepatotoxicity, MTT) [1]: 100.67%

Compound: O=C(NCCCCNc1c2c(nc3ccccc13)CCC2)c1cc(Cl)cc(Cl)c1 [Compound 3c]
- Selectivity for BuChE [2]: 9.18
- IC50 [2]: 126 ± 7 nM
- Selectivity for AChE [3]: 0.11
- IC50 [3]: 1160 ± 130 nM

Compound: heparin
- IC50 (hyaluronidase): 56400 ± 780 nM

Compound: O=C(NCCCCCCCCCNc1c2c(nc3ccccc13)CCC2)c1cc(Cl)cc(Cl)c1 [Compound 3h]
- Selectivity for BuChE [2]: 1.10
- IC50 [2]: 131 ± 11 nM
- Selectivity for AChE [3]: 0.91
- IC50 [3]: 145 ± 13 nM

Compound: O=C(NCCCCCNc1c2c(nc3ccccc13)CCC2)c1cc(Cl)cc(Cl)c1 [Compound 3d]
- Selectivity for BuChE [2]: 0.19
- IC50 [2]: 1120 ± 180 nM
- Selectivity for AChE [3]: 5.33
- IC50 [3]: 211 ± 31 nM

Compound: O=C(NCCNc1c2c(nc3ccccc13)CCC2)c1cc(Cl)cc(Cl)c1 [Compound 3a]
- Selectivity for BuChE [2]: 6.88
- IC50 [2]: 225 ± 21 nM
- Selectivity for AChE [3]: 0.15
- IC50 [3]: 1540 ± 121 nM

Compound: Cc1c(C)c2c(c(C)c1O)CCC(C)(C(=O)O)O2 (stereo not drawn) [Trolox, reference compound]
- % neuroprotection (SH-SY5Y cells [4]; compound 0.001 µM): 5.60%
- % neuroprotection (SH-SY5Y cells [4]; compound 0.01 µM): 4.67%
- % neuroprotection (SH-SY5Y cells [4]; compound 0.1 µM): 0.35%
- % neuroprotection (SH-SY5Y cells [5]): 2.15%
- % neuroprotection (SH-SY5Y cells [6]; compound 0.01 µM): 77.16%
- % neuroprotection (SH-SY5Y cells [6]; compound 0.1 µM): 91.22%
- % neuroprotection (SH-SY5Y cells [6]; compound 1 µM): 96.03%
- % neuroprotection (SH-SY5Y cells [6]; compound 10 µM): 95.05%

Compound: O=C(NCCCCCCCNc1c2c(nc3ccccc13)CCC2)c1cc(Cl)cc(Cl)c1 [Compound 3f]
- Selectivity for BuChE [2]: 2.16
- IC50 [2]: 117 ± 27 nM
- Selectivity for AChE [3]: 0.46
- IC50 [3]: 253 ± 42 nM

Compound: O=C(NCCCNc1c2c(nc3ccccc13)CCC2)c1cc(Cl)cc(Cl)c1 [Compound 3b]
- IC50 [2]: 889 ± 27 nM
- Selectivity for AChE [3]: 0.56
- IC50 [3]: 1180 ± 134 nM

Compound: CC(CN1c2ccccc2Sc2ccccc21)N(C)C.Cl (stereo not drawn) [Promethazine HCl]
- Experimental properties pKa [7]: 9.10[54]

Compound: O=C(NCCCCCCCCNc1c2c(nc3cc(Cl)ccc13)CCCC2)c1ccc2nc(-c3ccc(Cl)cc3)c3c(c2c1)NCCC3 [DP128, reference compound]
- anti-amyloid (inhibition) capacity for Aβ42 (Aβ42): 69.2 ± 4.1

Compound: O=C(NCCCCCCCCNc1c2c(nc3ccccc13)CCC2)c1cc(Cl)cc(Cl)c1 [Compound 3g]
- Selectivity for BuChE [2]: 4.50
- IC50 [2]: 330 ± 34 nM
- Selectivity for AChE [3]: 0.22
- IC50 [3]: 1480 ± 133 nM
